Read-outs that look alike come from different tables or passages of the source.

The target in series [1] is T1, P-gp (Homo sapiens, UniProt P08183). The following applies: Varma et al., 2003; cited from earlier work.
Series [2] relates to IL-6, IL-8, GM-CSF, TSLP secretion in PNECCs. Nature of the series: LPS stimulated cytokine secretion (ELISA) in PNECCs. It is filed as cell-based, human. The following applies: mean; for normalized IL-6 secretion: normalized to total media protein. The method, then:
(§1) Cells were exposed to 23 hours of stimulation with LPS (0.05 mg/mL) with or without concomitant P-gp inhibition by PSC 833(8 micM), which was applied to cells 1 hour prior to LPS treatment. Control wells were considered those exposed to culture medium alone (BEGM). A 0.4% trypan blue (Sigma, St. Louis, MO) cell survival assay was used to ensure the stimulant and inhibitor exposures were not cytotoxic. In all wells less than 20% of cells were stained blue indicating greater than 80% survival. Following the LPS and PSC 833 exposures, the media was removed from each well. Cytokine concentrations for IL-6, IL-8, GM-CSF, and TSLP in each well were determined by ELISA according to the manufacturer guidelines (eBioscience, San Diego, CA). Cytokine concentrations were normalized to total media protein concentrations using a Pierce BCA Protein Assay Kit.
Background: In an ELISA, binding on a coated surface is turned into a signal by an enzyme label.

Series [3] deals with P-gp. It is filed as cell-based, human. The following applies: PNECCs, mean. The method, then: Following removal of media from each well, the cytoplasmic and membranous protein fractions were isolated using a two-step extraction assay (DualXtract, Bulldog Bio, Inc., Portsmouth, NH). Membrane bound P-gp was quantified by subjecting the membranous fraction to ELISA (USCN Life Sciences Inc., Wuhan, P.R. China) and normalized to the cytoplasmic protein concentration.
In some wells, a specific P-gp inhibitor (PSC 833 8 micM, Tocris Bioscience, Bristol, UK) was applied to the cells 1 hour prior to LPS stimulation. Following the LPS and PSC 833 treatment, the media was removed from each well, and ELISA was performed to quantify membrane bound P-gp.

The test system of the next series is GM-CSF secretion. Nature of the series: GM-CSF secretion in LPS stimulated CRSwNP primary sinonasal epithelial cells with dexamethasone. It is filed as cell-based, human. The following applies: LPS 0.0125 mg/ml. The text has this:
The increase in intracellular corticosteroid concentration potentiates its anti-inflammatory effect. Primary sinonasal epithelial cell culture was derived from patients with chronic sinusitis with nasal polyps (CRSwNP) and stimulated with LPS, a component of gram negative bacterial cell walls.

The test system of series [4] is P-gp. The series is described as follows: Q-FIHC for membranous P-gp expression in PNECCs. The following applies: LPS 0.05 mg/mL, 23 h. It is filed as cell-based, human. The procedure: Exclusion criteria included the following: diagnosis of chronic sinusitis, use of oral steroids or immunotherapy within the preceding 4 weeks, aspirin sensitivity, ciliary dysfunction, autoimmune disease, cystic fibrosis, or any known immunodeficiency. All tissues were derived from schneiderian mucosa within the middle meatus.
Mucosal biopsies were washed and digested in Pronase for 90 minutes at 37° C. Cell suspensions were separated from particulate matter by centrifugation and resuspended in basal epithelial growth medium (BEGM) (Lonza, Basel, Switzerland). Cells were plated for 2 hours on standard tissue culture plates to remove contaminating fibroblasts. Cells were then expanded for 3-5 days on collagen coated 75 cm 2 dishes (Corning Life Sciences, Corning, NY). Once confluent, the PNECCs were trypsinized and re-seeded evenly on human collagen type IV-coated 6-well tissue culture plates. Cultures were grown to 80% confluence in BEGM prior to testing. PNECC cells intended for immunohistochemistry were grown on tissue culture treated coverslips placed within the wells. […]
Q-FIHC for membranous P-gp expression was performed using previously described techniques (Kirkeby et al., 2005). […] The mean corrected luminosity was considered the staining intensity (calculated using Image J v1.45s) divided by the total number of pixels subtended by the cells.

The subject of series [5] is P-gp. The series is described as follows: ELISA of membrane-bound P-glycoprotein in CRSwNP HSNECCs. The following applies: LPS 0.05 mg/mL, ng/mL normalized to total cytoplasmic protein (mcg/mL) per FIG. 17B. It is filed as cell-based, human. The procedure: Human sinonasal nasal epithelial cell cultures (HSNECCs) from five patients were grown from nasal polyps as previously described. Briefly, polyp samples were washed and digested in Pronase for 90 minutes at 37° C. Cell suspensions were separated from particulate matter by centrifugation and resuspended in BEGM. Cells were plated for 2 hours on standard tissue culture plates to remove contaminating fibroblasts. Cells were then expanded for 3-5 days on collagen coated 75 cm^2 dishes (Corning Life Sciences, Corning, NY). Once confluent, the HSNECCs were trypsinized and re-seeded evenly on human collagen type IV-coated 6-well and 96-well tissue culture plates. 6-well cultures were grown to 80% confluence in BEGM prior to cytokine and protein analysis. 96-well plates intended for the dose dependent inhibition assay were grown to 100% confluence. Cells intended for immunohistochemistry were grown on tissue culture treated coverslips.
Membrane-bound P-glycoprotein in HSNECCs was quantified as follows. After removal of media from each well, the cytoplasmic and membranous protein fractions were isolated using a two-step extraction assay (DualXtract, Bulldog Bio, Inc., Portsmouth, NH).

Series [6] relates to GM-CSF, IL-6, IL-8, IL-25 secretion in HSNECCs. The series is described as follows: P-gp mediated cytokine secretion testing (ELISA) in HSNECCs. It is filed as cell-based, human. The procedure:
(§2) For P-gp mediated cytokine secretion testing, HSNECC cells were exposed to 0.05 mg/mL LPS stimulation for 23 hours with or without concomitant P-gp inhibition using PSC 833 (8 μM), which was applied one hour prior to LPS stimulation. Control wells were considered those exposed to culture medium alone (BEGM). A 0.4% trypan blue (Sigma, St. Louis, MO) cell survival assay was used to ensure the stimulant and inhibitor exposures were not cytotoxic. In all wells less than 20% of cells were stained blue indicating greater than 80% survival. Following the LPS and PSC 833 exposures, the media was removed from each well. Cytokine concentrations for GM-CSF, IL-6, IL-8, and IL-25 in each well were determined by ELISA according to the manufacturer guidelines (GM-CSF, IL-6, IL-8 eBioscience, San Diego, CA; IL-25 Assay Biotechnology, San Francisco, CA). Cytokine concentrations were normalized to total media protein concentrations using a Pierce BCA Protein Assay Kit.

A further series concerns PNECCs. Nature of the series: 0.4% trypan blue cell survival assay in PNECCs. It is filed as cell-based, human. The procedure:
PNECC cells were exposed to 23 hours of stimulation with lipopolysaccharide (LPS, 0.05 mg/mL), which is a toll-like receptor 4 agonist and capable of eliciting a strong immune responses. Control cells were considered those exposed to culture medium alone (BEGM). A 0.4% trypan blue (Sigma, St. Louis, MO) cell survival assay was used to ensure the stimulant exposures were not cytotoxic. In all wells, less than 20% of cells were stained blue indicating greater than 80% survival of the cells. Following the LPS exposures, the media was removed from each well.
as §1, with “Cytokine concentrations were normalized to total media protein concentrations using a Pierce BCA Protein Assay Kit.” left out

The target in series [7] is T1, P-gp. Nature of the series: Steroid release from nasal polyp explants after dexamethasone incubation. It is filed as cell-based. The following applies: polyp explants after 30-minute dexamethasone 0.05 mg/mL; PSC 833 (804) vs media alone. The procedure: The ability of nasal polyp explants to retain steroid after a 30-minute incubation in dexamethasone (0.05 mg/mL, n=6) was examined. Following incubation, polyp explants were placed either in media alone or in media containing the P-gp inhibitor PSC 833 (804) and the amount of steroid released by the explants into the surrounding media was measured.

Series [8] deals with T1, P-gp. The series is described as follows: Intracellular dexamethasone retention in primary sinonasal epithelial cells (CRSwNP). The following applies: LPS stimulated, three patients. It is filed as cell-based.
From the text: These cultured primary sinonasal epithelial cells were stimulated with lipopolysaccharide (LPS) in the presence or absence of the P-gp inhibitor PSC 833.
A further series relates to HSNECC cells. It is filed as cell-based. Conditions: human, 24 h, 8 µM. The method, then: as §2
Where [9] appears, read: LPS 0.05 mg/mL + PSC 833 8 micM.
The mark [10] stands for this setting: LPS 0.05 mg/mL + PSC 833 8 μM, no inhibition.

T1 sequence (P08183 whole entry): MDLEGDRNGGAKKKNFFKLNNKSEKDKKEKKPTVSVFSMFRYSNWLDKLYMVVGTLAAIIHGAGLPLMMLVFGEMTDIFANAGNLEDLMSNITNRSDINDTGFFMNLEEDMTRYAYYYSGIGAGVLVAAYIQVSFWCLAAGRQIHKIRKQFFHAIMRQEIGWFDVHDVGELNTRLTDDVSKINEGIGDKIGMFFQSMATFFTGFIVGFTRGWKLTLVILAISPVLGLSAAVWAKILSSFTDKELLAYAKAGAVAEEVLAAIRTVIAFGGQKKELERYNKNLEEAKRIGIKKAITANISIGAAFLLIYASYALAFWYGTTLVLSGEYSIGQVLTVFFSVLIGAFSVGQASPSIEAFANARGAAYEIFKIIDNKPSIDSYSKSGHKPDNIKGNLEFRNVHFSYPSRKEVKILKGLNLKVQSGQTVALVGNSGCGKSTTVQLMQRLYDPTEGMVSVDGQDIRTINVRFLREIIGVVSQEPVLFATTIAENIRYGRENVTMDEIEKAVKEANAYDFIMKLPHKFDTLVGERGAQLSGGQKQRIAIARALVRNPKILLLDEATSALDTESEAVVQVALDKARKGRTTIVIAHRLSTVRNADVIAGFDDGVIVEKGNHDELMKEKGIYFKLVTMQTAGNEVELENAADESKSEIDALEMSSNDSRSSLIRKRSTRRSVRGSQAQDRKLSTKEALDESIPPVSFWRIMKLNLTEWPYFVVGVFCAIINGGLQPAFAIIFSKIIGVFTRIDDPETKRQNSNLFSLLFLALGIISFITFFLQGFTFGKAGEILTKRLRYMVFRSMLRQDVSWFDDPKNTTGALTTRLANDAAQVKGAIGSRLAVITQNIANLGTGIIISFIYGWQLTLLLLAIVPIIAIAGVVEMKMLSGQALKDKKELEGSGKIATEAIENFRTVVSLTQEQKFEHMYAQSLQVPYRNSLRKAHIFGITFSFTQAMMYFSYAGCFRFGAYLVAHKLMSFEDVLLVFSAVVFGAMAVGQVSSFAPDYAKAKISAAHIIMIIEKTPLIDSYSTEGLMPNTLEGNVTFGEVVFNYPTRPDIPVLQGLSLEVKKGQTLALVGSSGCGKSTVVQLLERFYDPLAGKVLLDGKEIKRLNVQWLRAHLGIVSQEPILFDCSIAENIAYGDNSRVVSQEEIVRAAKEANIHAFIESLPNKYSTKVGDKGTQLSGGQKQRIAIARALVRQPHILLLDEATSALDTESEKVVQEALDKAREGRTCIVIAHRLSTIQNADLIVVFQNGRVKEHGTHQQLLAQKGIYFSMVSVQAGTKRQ

For the compound `COc1cc2c(cc1OC)CN(CCc1ccc(NC(=O)c3cc(OC)c(OC)cc3NC(=O)c3cnc4ccccc4c3)cc1)CC2` [XR9576, N-[2-[[4-[2-(6,7-Dimethoxy-3,4-dihydro-1H-isoquinolin-2-yl)ethyl]phenyl]carbamoyl]-4,5-dimethoxyphenyl]quinoline-3-carboxamide], the “potency relative to the first and second-generation P-gp inhibitors” value at P-gp [1] is listed as “about 10 fold”.

Consider lipopolysaccharide [LPS], for which, in series [2] (LPS 0.05 mg/mL alone, 23 h), the “normalized GM-CSF secretion” value worked out at 39.92, the “normalized IL-8 secretion” value is 912.91, the “normalized TSLP secretion” value is 6.65 and the “normalized IL-6 secretion” value was 79.67. In addition, in the series on P-gp [3] (LPS 0.05 mg/mL alone, 23 h), the “normalized membranous P-gp (ELISA, normalized to cytoplasmic protein)” value is recorded as 19.63. Besides, the “GM-CSF secretion versus unstimulated control cells” value in the series with GM-CSF secretion was “increased GM-CSF secretion”. For the same compound, the “mean corrected luminosity of membranous P-gp (Q-FIHC)” value with P-gp [4] is listed as 9.64. Also, the “mean normalized concentration of membranous P-gp (ELISA)” value in the series on P-gp [5] is given as 22.23+/−10.22. In addition, in [6] (LPS 0.05 mg/mL alone, 23 hours), the “secretion of GM-CSF normalized to total media protein” value is reported as 45.21+/−41.39 pcg/mL normalized to total med, the “secretion of IL-6 normalized to total media protein” value is 63.16+/−36.37 pcg/mL normalized to total med, the “secretion of IL-8 normalized to total media protein” value is listed as 1041.17+/−550.52 pcg/mL normalized to total med and the “secretion of IL-25 normalized to total media protein” value is given as 0.075+/−0.039 pcg/mL normalized to total med. The “cell survival (trypan blue)” value with PNECCs (PNECCs, LPS 0.05 mg/mL, 23 hours) is on record as “greater than 80%”.

Take `C/C=C/C[C@@H](C)C(=O)[C@H]1C(=O)N[C@@H](C(C)C)C(=O)N(C)CC(=O)N(C)[C@@H](CC(C)C)C(=O)N[C@@H](C(C)C)C(=O)N(C)[C@@H](CC(C)C)C(=O)N[C@@H](C)C(=O)N[C@H](C)C(=O)N(C)[C@@H](CC(C)C)C(=O)N(C)[C@@H](CC(C)C)C(=O)N(C)[C@@H](C(C)C)C(=O)N1C` [PSC 833, 6-[(2S,4R,6E)-4-methyl-2-(methylamino)-3-oxo-6-octenoic acid]-7-L-valine-cyclosporin A]: in [2] (setting [9]), the “normalized GM-CSF secretion” value came to 7.64, the “normalized TSLP secretion” value turned out to be 5.13 and the “normalized IL-6 secretion” value worked out at 37.60. Besides, in series [2] (LPS 0.05 mg/mL + PSC 833 8 micM, reduction not significant (p=0.313)), the “normalized IL-8 secretion” value came to 801.09. Also, the “normalized membranous P-gp (ELISA, normalized to cytoplasmic protein)” value in the series on P-gp [3] (LPS + PSC 833 8 micM applied 1 hour prior to LPS, not significant vs LPS alone (p=0.115)) is 70.40. Further, the “GM-CSF secretion compared to dexamethasone treatment alone” value with GM-CSF secretion (PSC833 (804) + dexamethasone 0.1 mg/mL) is listed as “reduced GM-CSF secretion”. Moreover, on P-gp [7], the “steroid release by explants into surrounding media” value is “statistically significant decrease”. Also, the “intracellular dexamethasone retention relative to dexamethasone alone” value on P-gp [8] is given as “increased intracellular dexamethasone retention”. For the same compound, in [6] (LPS 0.05 mg/mL + PSC 833 8 μM), the “secretion of GM-CSF normalized to total media protein” value was 8.47+/−3.28 pcg/mL normalized to total med and the “secretion of IL-6 normalized to total media protein” value is reported as 39.94+/−31.07 pcg/mL normalized to total med. In series [6] (setting [10]), the “secretion of IL-8 normalized to total media protein” value was 1608.41+/−471.94 pcg/mL normalized to total med and the “secretion of IL-25 normalized to total media protein” value was 0.073+/−0.038 pcg/mL normalized to total med. In the series on PNECCs (human, 24 h, 8 µM), the “cell survival (trypan blue)” value is recorded as “greater than 80%”. In addition, the “cell survival (trypan blue)” value with HSNECC cells was “greater than 80%”.

In the case of `CCOC/C=C/c1ccc(-c2nc(-c3ccc(NC(C)C)cc3)c(-c3ccc(NC(C)C)cc3)[nH]2)cc1` [OC144093, 4-[2-[4-[(E)-3-ethoxyprop-1-enyl]phenyl]-4-[4-(propan-2-ylamino)phenyl]-1H-imidazol-5-yl]-N-propan-2-ylaniline], the “potency relative to the first and second-generation P-gp inhibitors” value at P-gp [1] is listed as “about 10 fold”.

The values are drawn from US12268726B2, “Treatment of rhinosinusitis with P-glycoprotein inhibitors” (Massachusetts Eye and Ear Infirmary, priority 2012, dated 2025).
